Assay results taken from patent US6191271A, “Synthetic divalent sLex containing polylactosamines and methods for use” (Glycim Oy, priority 1998, dated 2001).
“Also recorded” adds a separate entry of the source.

How the values were obtained:
[1] = system: human Fuc-TIV; assay: Fucosyltransferase reaction with lysates of CHO-cells transfected with human Fuc-TIV; type: biochemical; conditions: for share of Fuc-TIV fucose transfer at the terminal (sialylated or non-reducing end) LN unit: residue 3 / terminal LN unit
Experimental: (§1) Transfected Cells and Cell Lysates--The transfection of CHO-cells stably expressing human Fuc-TIV or Fuc-TVII has been described previously (Lowe, J. B., et al., J. Biol. Chem. 266:17467-17477 (1991); Natsuka, S., et al., J. Biol. Chem. 269:16789-16794 (1994)). For the enzyme assays, the cells were lysed in 1% Triton X-100 on ice in the presence of a mixture of protease inhibitors (16 μg/ml benzamidine HCl, 10 μg/ml phenanthroline, 10 μg/ml aprotinin, 10 μg/ml leupeptin, 10 μg/ml pepstatin A, 1 mM PMSF, Pharmingen, San Diego, Calif.).
(§2) Glycan 1 was from Sigma (St. Louis, Mo.), and glycan 2 from Oxford Glycosystems (Abingdon, UK). The others were synthesized enzymatically. Briefly, glycan 11 was constructed from GlcNAcβ1-3Galβ1-OMe (Sigma) by β1,4-galactosylation (Brew, K., et al., Proc. Natl. Acad Sci. USA 59:491-497 (1968)) followed by β1,3-N-acetylglycosaminylation (Seppo, A., et al., Biochem. Cell Biol. 68:44-53 (1990)) and a second round of β1-4-galactosylation. […] Glycan 3 was obtained from glycan 11 by α2,3-sialylation as in (Maaheimo, H., et al., Eur. J. Biochem. 234:616-625 (1995)). Glycan 12 was constructed from the GNβ1-3 'LNβ1-3 'LN (Leppanen, A., et al., Biochemistry 30:9287-9296(1991)) by β1,4-galactosylation, MALDI-TOF MS: (M+Na)^+ m/z 1137.1 (calc. 1137.0). Glycan 4 was obtained by glycan 12 by α2,3-sialylation. Glycan 15 was synthesized as in (Renkonen, O., et al., Biochem. Cell. Biol. 68:1032-1036 (1990)), MALDI-TOF MS: (M+Na)^+ m/z 1136.9 (calc. 1137.0). Glycan 16 was obtained by a 2,3-salylation of 15. In the synthesis of glycan 8, GNβ1-3'LNβ1-3'LN was α1,3 [^14 C]fucosylated at both LN units with α1,3/4-FucTs ofhuman milk and then β1,4-galactosylated. MALDI-TOF MS of the resulting octasaccharide LN β1-3'Lexβ1-3'Lex gave (M+Na)^+ m/z 1429.3 (calc. 1429.3). The octasaccharide was finally α2,3-sialylated to give glycan 8. Degradation of glycan 8 by sialidase and a mixture of β-galactosidaseand β-N-acetylhexosaminidase gave the neutral hexasaccharide [^14 C]Fucα1-3LNβ1-3'[^14 C]Fucα1-3LN, which chromatographed like an authentic marker on paper. In the synthesis of glycan 5, glycan 10 was converted to the pentasaccharide LNβ1-3 '(GNβ1-6 ')LN as in (Niemela, R., et al., Carbohydr. Res. 279:331-338 (1995); Maaheimo, H., et al., Carbohydr. Res. 297:53-59 (1997)), MALDI-TOF MS: (M+Na)^+ m/z 974.8 (calc. 974.9). The product was α2,3-sialylated, α1,3-fucosylated selectively at the distal, sialylated LN-unit (Niemela, R., et al., Carbohydr. Res. 279:331-338 (1995), and treated with β-N-acetylhexosaminidase for removal of the protecting β1-6GN-unit to give glycan 5. Glycan 6, in turn, was obtained by α1,3-fucosylating glycan 9 at the LN unit by human milk α1,3/4-Fuc-Ts. The product was then β1,4-galactosylated and finally α2,3-sialylated. Glycan 7 was synthesized by α2,3-sialylation of the heptasaccharide LNβ1-3'Lexβ1-3'LN,prepared by β1,4-galactosylation of GNβ1-3 'Lexβ1-3 'LN, which had been isolated from a mixture of monofucosylated isomers by wheat germ agglutinin (WGA)-agarose chromatography. LNβ1-3'Lexβ1-3'N was characterized by ^1 H-NMR-spectroscopy, MALDI-TOF MS: (M+Na)^+m/z 1282.5 (calc. 1282.5). Glycan 9 was obtained by β1,3-N-acetylglucosaminylation of LN (Seppo, A., et al., Biochem. Cell Biol. 68:44-53 (1990)), MALDI-TOF MS: (M+Na)^+ m/z 609.7 (calc. 609.5). Glycan 10 was synthesized by β1,4-galactosylation of glycan 9. Glycans 13 and 14 were obtained by separating monofucosylated derivatives of glycan 10 by WGA chromatography. Glycan 13, MALDI-TOF MS: (M+Na)^+ m/z 917.9 (calc. 917.8). Glycan 14, MALDI-TOF MS: (M+Na)^+ m/z 917.8 (calc. 917.8). […]

[2] = system: human Fuc-TVII; assay: Fucosyltransferase reaction with lysates of CHO-cells transfected with human Fuc-TVII; type: biochemical
Experimental: as §1
as §2, with “chromatography.” for “chromatography. Glycan 13, MALDI-TOF MS: (M+Na)^+ m/z 917.9 (calc. 917.8). Glycan 14, MALDI-TOF MS: (M+Na)^+ m/z 917.8 (calc. 917.8).”

[3] = system: rat lymphocyte L-selectin; assay: Stamper-Woodruff assay: in vitro lymphocyte adhesion to high endothelial venules (HEV) of peripheral rat lymph nodes; type: cell-based
Experimental: The affinities of the glycans of the invention towards rat lymphocyte L-selectin were analyzed with the in vitro Stamper-Woodruff binding assay. […] The important control saccharides, carrying at the distal termini the fucose-free sLN-residues instead of the sLex-epitopes are consistently without any inhibitory effect.
Lymphocytes were isolated from mesenterical lymph nodes of WF or DA rats and used immediately in the assay after isolation and pretreatment. […] Lymphocytes were over 99% of purity as quantitated by cytocentrifuge preparations. […]
In the Stamper-Woodruff assay 3×10^6 lymphocytes in 100 μl of RPMI containing 0.5% FCS were put on a frozen section inside a 23 mm wax circle, and rotated for 30 min at +4° C. […] The number of bound lymphocytes was calculated per high endothelial venules and 50 to 100 vessels were identified from each sample. […]
Lymphocyte adhesion was studied in a well documented L-selectin-dependent Stamper-Woodruff assay where frozen sections of lymph nodes were prepared, lymphocytes were placed on top of them, adhesion was permitted on a rotator and the number of adherent cells were quantitated visually. […]

Compound: CC(=O)N[C@H]1C(O)O[C@H](CO)[C@@H](O[C@@H]2O[C@H](CO)[C@H](O)[C@H](O)[C@H]2O)[C@@H]1O (stereo partly shown) [glycan 1 (FIG. 8), N-acetyllactosamine, reference compound]
- fucosylation by Fuc-TIV, acceptor- and site-specificity (in words) [1]: rapidly fucosylates
- Transfer rate (reference acceptor) ([1]; reference acceptor for Fuc-TIV): ~3.9 pmol/μg protein/h

Compound: CC(=O)N[C@H]1[C@H]([C@H](O)[C@H](O)CO)O[C@@](O[C@H]2[C@@H](O)[C@@H](CO)O[C@@H](O[C@H]3[C@H](O)[C@@H](NC(C)=O)C(O)O[C@@H]3CO)[C@@H]2O)(C(=O)O)C[C@@H]1O (stereo partly shown) [glycan 2 (FIG. 8), SAα2-3 'LN, reference compound]
- fucosylation by Fuc-TIV, acceptor- and site-specificity (in words) [1]: ineffective
- Transfer rate (reference acceptor) ([2]; reference acceptor for Fuc-TVII): ~3.2 pmol/μg protein/h

Compound: LN1-3'LN1-3'LN [glycan 12 (FIG. 8)]
- share of Fuc-TIV fucose transfer at the innermost / reducing end LN unit (residue 1) [1]: 28%
- share of Fuc-TIV fucose transfer at the middle LN unit (residue 2) [1]: 47%
- share of Fuc-TIV fucose transfer at the terminal (sialylated or non-reducing end) LN unit [1]: 25%

Compound: LNβ1-3 'LNβ1-3'Galβ1-OMe [glycan 11 (FIG. 8)]
- fucosylation by Fuc-TIV, acceptor- and site-specificity (in words) [1]: transferred efficiently
- share of Fuc-TIV fucose transfer at the middle LN unit (residue 2) [1]: 67%
- share of Fuc-TIV fucose transfer at the terminal (sialylated or non-reducing end) LN unit [1]: 33%

Compound: LNβ1-3'Lex [glycan 14 (FIG. 8)]
- fucosylation by Fuc-TIV, acceptor- and site-specificity (in words) [1]: transferred rapidly

Compound: Lexβ1-3 'LN [glycan 13 (FIG. 8)]
- fucosylation by Fuc-TIV, acceptor- and site-specificity (in words) [1]: transferred rapidly

Compound: SAα2,3'LNβ1,3'LNβ1,3' (SAα2,3'LNβ1,3'LNβ1,6')LN [glycan 5]
- effect on lymphocyte adhesion to HEV (in words) ([3]; 50 nM): no effect in lymphocyte binding to HEV
- effect on lymphocyte adhesion/binding to HEV (in words) ([3]; peripheral rat lymph node HEV): did not show inhibitory effects

Compound: SAα2-3'LNβ1-3'LNβ1-3'LN [glycan 4 (FIG. 8)]
- fucosylation by Fuc-TIV, acceptor- and site-specificity (in words) [1]: efficiently fucosylates; also recorded: transfers rapidly to sialoglycan 4, at both "inner" LN units; also recorded: efficient conversion of glycan 4 to glycan 8 in two steps catalyzed by Fuc-TIV, but not by Fuc-TVII
- rate of Fuc-TIV transfer to the sialylated LN unit (residue 3), times slower than to both inner LN units ([1]; residue 3 vs residues 1 and 2): 30-40 times slower
- fucosylation by Fuc-TVII, acceptor- and site-specificity (in words) [2]: transfers preferentially to the sialylated, distal LN residue
- rate of Fuc-TVII transfer to the reducing end LN unit (residue 1), times slower than to the sialylated LN residue ([2]; residue 1 vs residue 3): 84 times slower
- rate of Fuc-TVII transfer to the middle LN unit (residue 2), times slower than to the sialylated LN residue ([2]; residue 2 vs residue 3): 17 times slower

Compound: SAα2-3'LNβ1-3'Lexβ1-3'LN [glycan 7 (FIG. 8)]
- fucosylation by Fuc-TIV, acceptor- and site-specificity (in words) [1]: effectively utilizes
- share of Fuc-TIV fucose transfer at the innermost / reducing end LN unit (residue 1) [1]: 86%
- share of Fuc-TIV fucose transfer at the terminal (sialylated or non-reducing end) LN unit [1]: Less than 5%

Compound: SAα2-3'LNβ1-3Lex β1-3'[^14 C]Lex [glycan 8 (FIG. 8)]
- fucosylation by Fuc-TIV, acceptor- and site-specificity (in words) [1]: ineffective
- rate of Fuc-TIV reaction as % of the rate catalyzed by Fuc-TVII ([1]; transfer to distal sialylated LN unit giving SAα2-3'Lexβ1-3'Lexβ1-3'Lex): 6-7%
- fucosylation by Fuc-TVII, acceptor- and site-specificity (in words) [2]: nearly as rapidly as glycan 2
